Key:
[1] = system: Mycobacterium tuberculosis Erdman (autoluminescent); experiment: GRinf, maximum normalised growth rate inhibition (unitless (-1 to 1)); higher = less effect (negative = killing)
Protocol: (§1)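 DiaMOND equipotent two-drug combination dose responses against autoluminescent M. tuberculosis Erdman in 8 in vitro models. Read-out is OD600, or luminescence for the intracellular and dormancy models, normalised to untreated wells. Hill-fit Einf, AUC25 and GRinf are potency metrics; FIC50 and FIC90 are Loewe-additivity fractional inhibitory concentrations, given as log2 (negative = synergy). Replicates are averaged.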

[2] = system: Mycobacterium tuberculosis Erdman (autoluminescent); experiment: FIC90 (Loewe) at 90% inhibition (log2); higher = more antagonistic
Protocol: as §1

[3] = system: Mycobacterium tuberculosis Erdman (autoluminescent); experiment: AUC25, normalised area under dose response up to IC25 (fraction (0-1)); higher = more potent at low dose
Protocol: as §1

[4] = system: Mycobacterium tuberculosis Erdman (autoluminescent); experiment: FIC50 (Loewe) at 50% inhibition (log2); higher = more antagonistic
Protocol: as §1

[5] = system: Mycobacterium tuberculosis Erdman (autoluminescent); experiment: Einf, fitted maximum growth inhibition of combination (fraction); higher = stronger maximal inhibition
Protocol: as §1

[6] = in vitro model: acidic pH 5.7, time point: constant (~7 days, model-specific)
[7] = in vitro model: acidic pH 5.7, time point: terminal (~4-5 doublings, model-specific)
[8] = in vitro model: butyrate, time point: constant (~7 days, model-specific)
[9] = in vitro model: butyrate, time point: terminal (~4-5 doublings, model-specific)
[10] = in vitro model: cholesterol 0.05 mM, time point: constant (~7 days, model-specific)
[11] = in vitro model: cholesterol 0.05 mM, time point: terminal (~4-5 doublings, model-specific)
[12] = in vitro model: cholesterol-high 0.2 mM, time point: constant (~7 days, model-specific)
[13] = in vitro model: cholesterol-high 0.2 mM, time point: terminal (~4-5 doublings, model-specific)
[14] = in vitro model: dormancy (butyrate + nitrate, low O2), time point: constant (~7 days, model-specific)
[15] = in vitro model: dormancy (butyrate + nitrate, low O2), time point: terminal (~4-5 doublings, model-specific)
[16] = in vitro model: intracellular J774, time point: constant = terminal
[17] = in vitro model: standard 7H9 glycerol, time point: constant = terminal
[18] = in vitro model: valerate, time point: constant (~7 days, model-specific)
[19] = in vitro model: valerate, time point: terminal (~4-5 doublings, model-specific)

For `CC(C)/N=c1\cc2n(-c3ccc(Cl)cc3)c3ccccc3nc-2cc1Nc1ccc(Cl)cc1` [clofazimine] + O=[N+]([O-])c1cn2c(n1)OC[C@@H](OCc1ccc(OC(F)(F)F)cc1)C2 [pretomanid], the GRinf [1, 6] was -0.287, the GRinf [1, 7] was -0.285 and the GRinf [1, 8] was -0.167. It also gave a GRinf [1, 9] of -0.159, a GRinf [1, 10] of 0.0886 and a GRinf [1, 11] of -0.123. For the same compound, the GRinf [1, 12] was -0.208, the GRinf [1, 13] was -0.69 and the GRinf [1, 14] was 0.195. It also gave a GRinf [1, 15] of -0.234, a GRinf [1, 16] of -0.541 and a GRinf [1, 17] of -0.211. It also gave a GRinf [1, 18] of -0.0878, a GRinf [1, 19] of -0.0377 and an FIC90 [2, 7] of 0.503. The FIC90 [2, 8] was 1.35, the FIC90 [2, 9] was 1.26 and the FIC90 [2, 11] was 0.298. The FIC90 [2, 12] was 0.676, the FIC90 [2, 13] was 0.816 and the FIC90 [2, 14] was -1.07. For the same compound, the FIC90 [2, 15] was -0.637, the FIC90 [2, 16] was 0.0803 and the FIC90 [2, 17] was 0.585. For the same compound, the FIC90 [2, 18] was 1.18, the FIC90 [2, 19] was 1.26 and the AUC25 [3, 6] was 0.134. For the same compound, the AUC25 [3, 7] was 0.108, the AUC25 [3, 8] was 0.117 and the AUC25 [3, 9] was 0.111. It also gave an AUC25 [3, 10] of 0.12, an AUC25 [3, 11] of 0.132 and an AUC25 [3, 12] of 0.106. The AUC25 [3, 13] was 0.0964, the AUC25 [3, 14] was 0.0762 and the AUC25 [3, 15] was 0.0498. For the same compound, the AUC25 [3, 17] was 0.116, the AUC25 [3, 18] was 0.136 and the AUC25 [3, 19] was 0.097. For the same compound, the FIC50 [4, 6] was -0.0507, the FIC50 [4, 7] was -0.167 and the FIC50 [4, 8] was 0.464. The FIC50 [4, 9] was 0.356, the FIC50 [4, 10] was 0.602 and the FIC50 [4, 11] was 0.632. It also gave an FIC50 [4, 12] of 0.591, an FIC50 [4, 13] of 0.631 and an FIC50 [4, 14] of -0.213. It also gave an FIC50 [4, 15] of -0.405, an FIC50 [4, 17] of -0.193 and an FIC50 [4, 18] of 0.762. The FIC50 [4, 19] was -0.0183, the Einf [5, 6] was 0.778 and the Einf [5, 7] was 0.974. For the same compound, the Einf [5, 8] was 0.967, the Einf [5, 9] was 0.995 and the Einf [5, 10] was 0.704. For the same compound, the Einf [5, 11] was 0.919, the Einf [5, 12] was 0.928 and the Einf [5, 13] was 1. It also gave an Einf [5, 14] of 0.892, an Einf [5, 15] of 0.991 and an Einf [5, 16] of 0.997. It also gave an Einf [5, 17] of 0.964, an Einf [5, 18] of 0.884 and an Einf [5, 19] of 0.925.
For `CC[C@@H](CO)NCCN[C@@H](CC)CO` [ethambutol] + CC(=O)NC[C@H]1CN(c2ccc(N3CCOCC3)c(F)c2)C(=O)O1 [linezolid], the GRinf [1, 6] was -0.243, the GRinf [1, 7] was -0.168 and the GRinf [1, 8] was 0.121. The GRinf [1, 9] was 0.126, the GRinf [1, 10] was -0.189 and the GRinf [1, 11] was -0.325. It also gave a GRinf [1, 12] of -0.702, a GRinf [1, 13] of -0.951 and a GRinf [1, 14] of 0.461. The GRinf [1, 15] was -0.432, the GRinf [1, 16] was -0.511 and the GRinf [1, 17] was 0.15. The GRinf [1, 18] was 0.187, the GRinf [1, 19] was 0.127 and the FIC90 [2, 7] was 0.495. For the same compound, the FIC90 [2, 9] was 0.243, the FIC90 [2, 13] was 1.03 and the FIC90 [2, 15] was 0.335. For the same compound, the FIC90 [2, 16] was 0.585, the FIC90 [2, 19] was 0.0781 and the AUC25 [3, 6] was 0.0997. The AUC25 [3, 7] was 0.0783, the AUC25 [3, 8] was 0.0872 and the AUC25 [3, 9] was 0.0727. For the same compound, the AUC25 [3, 10] was 0.151, the AUC25 [3, 11] was 0.155 and the AUC25 [3, 12] was 0.106. The AUC25 [3, 13] was 0.104, the AUC25 [3, 14] was 0.125 and the AUC25 [3, 15] was 0.106. The AUC25 [3, 17] was 0.0844, the AUC25 [3, 18] was 0.091 and the AUC25 [3, 19] was 0.0651. The FIC50 [4, 6] was 0.0133, the FIC50 [4, 7] was 1.24 and the FIC50 [4, 8] was 0.492. For the same compound, the FIC50 [4, 9] was 0.333, the FIC50 [4, 10] was 0.049 and the FIC50 [4, 11] was -0.615. For the same compound, the FIC50 [4, 12] was 0.732, the FIC50 [4, 13] was 0.569 and the FIC50 [4, 14] was 0.653. The FIC50 [4, 15] was -0.181, the FIC50 [4, 17] was 0.485 and the FIC50 [4, 18] was -0.233. For the same compound, the FIC50 [4, 19] was 0.293, the Einf [5, 6] was 0.79 and the Einf [5, 7] was 0.957. It also gave an Einf [5, 8] of 0.88, an Einf [5, 9] of 0.934 and an Einf [5, 10] of 0.741. It also gave an Einf [5, 11] of 0.952, an Einf [5, 12] of 0.935 and an Einf [5, 13] of 1. For the same compound, the Einf [5, 14] was 0.811, the Einf [5, 15] was 0.943 and the Einf [5, 16] was 0.948. For the same compound, the Einf [5, 17] was 0.892, the Einf [5, 18] was 0.817 and the Einf [5, 19] was 0.909.
